From PMC12030650, “Synthesis, Antitumor Activities, and Apoptosis-Inducing Activities of Schiff’s Bases Incorporating Imidazolidine-2,4-dione Scaffold: Molecular Docking Studies and Enzymatic Inhibition Activities” (Pharmaceuticals, 2025)
Where “and” joins values, the source holds several entries; their conditions need not be identical. Equal values may be shown once. Read-outs that look alike come from different tables or passages of the source.

Key:
EGFR [1] = biological target: T1, EGFR (Homo sapiens, UniProt P00533); set-up: method as in PMID 31297023; conditions: read-out: kinase inhibition of EGFR IC50; cited from earlier work
T1 construct: purchased BPS Bioscience 40321

[2] = tested on: breast cancer cell line MCF-7; set-up: method as in doi:10.1016/j.rechem.2023.101118; conditions: cited from earlier work
various cell lines = tested on: various cell lines; set-up: method as in doi:10.1007/s00044-013-0597-1; conditions: read-out: cytotoxic effect on various cell lines IC50; cited from earlier work
[3] = tested on: WI-38 normal fibroblast cell line; experiment: MTT cytotoxicity against normal human cells; format: cell-based; conditions: normal fibroblast WI-38; for IC50: Homo sapiens, read-out: IC50 WI-38
Protocol: The evaluation was conducted using a 3-(4,5-dimethylthiazol-2-yl)-2,5-diphenyltetrazolium bromide (MTT) assay, as described by the authors of [50, 51]. The cell lines were obtained from ATCC. For comparative purposes, standard drugs, such as doxorubicin and erlotinib, were employed.

EGFR [4] = biological target: T1, EGFR; experiment: In vitro luminescent EGFR tyrosine kinase assay (Kinase-Glo Max); format: biochemical; conditions: read-out: Kinase Inhibition IC50 EGFR
HER2 = biological target: T2, HER2 (Homo sapiens, UniProt P04626); experiment: In vitro luminescent HER2 tyrosine kinase assay (Kinase-Glo Max); format: biochemical; conditions: read-out: Kinase Inhibition IC50 HER2
T2 construct: purchased BPS Bioscience 40721
Protocol: […]. Erlotinib was probed as the standard drug in the EGFR inhibition assay, while lapatinib was tested as the […]. […].
EGFR and HER2 kinase inhibitory activities were determined based on the manufacturer’s guidelines (EGFR Kinase Assay Kit Catalog no. 40321 and HER2 Kinase Assay Kit Catalog no. 40721, BPS Bioscience, San Diego, CA).

[5] = tested on: anti-apoptotic protein MCL-1 in MCF-7; experiment: MCL-1 expression in MCF-7 cells (ELISA); format: cell-based, human
Protocol: (§1) Apoptosis is regulated by intrinsic pathways such as the B-cell lymphoma-2 (BCL-2) family. […] MCL-1, one of the BCL-2 family members, is likely to have a significant role in cell death. The expression of MCL-1 and BCL-2 in MCF-7 cells treated with different concentrations was studied.
(§2) Apoptosis of the MCF-7 cancer cell line was measured using the Human MCL1eia kit (ELISA Kit) for the MCL-1 enzyme assay and the Invitrogen Zymed® Bcl-2 ELISA Kit for the BCL-2 enzyme assay. The ROBONIK P2000 ELISA READER was used for analysis.

[6] = tested on: anti-apoptotic protein BCL-2 in MCF-7; experiment: BCL-2 expression in MCF-7 cells (ELISA); format: cell-based, human
Protocol: as §1, §2

MCF-7 cell line = experiment: Cell cycle analysis (propidium iodide, flow cytometry); format: cell-based, human
Text: Cell cycle analysis is used to quantify DNA content distribution via flow cytometry at various cell cycle stages (pre-G1, G1, S, and G2/M). Compound 24 was selected to analyze its effect on cell cycle progression in the MCF-7 cell line at different concentrations.
Cancer cell line MCF-7 was stained with ab139418_Propidium Iodide (DNA stain) and analyzed using a FACSCalibur flow cytometer.

[7] = tested on: breast adenocarcinoma (MCF-7); experiment: MTT cytotoxicity assay, MCF-7; conditions: for IC50: Homo sapiens, MCF7, read-out: IC50 MCF-7; for SI (selectivity index) MCF-7: WI-38 vs MCF-7
hepatoblastoma (HePG-2) = experiment: MTT cytotoxicity assay, HePG-2; conditions: for IC50: Homo sapiens, HepG2, read-out: IC50 HePG-2; for SI (selectivity index) HePG-2: WI-38 vs HePG-2
[8] = tested on: human colorectal carcinoma (HCT-116); experiment: MTT cytotoxicity assay, HCT-116; conditions: for IC50: Homo sapiens, HCT-116, read-out: IC50 HCT-116; for SI (selectivity index) HCT-116: WI-38 vs HCT-116
[9] = tested on: HCT-116, HePG-2, and MCF-7; experiment: MTT cytotoxicity, summary over the examined cancer cell lines; conditions: Homo sapiens

T1 sequence (P00533 25-1210): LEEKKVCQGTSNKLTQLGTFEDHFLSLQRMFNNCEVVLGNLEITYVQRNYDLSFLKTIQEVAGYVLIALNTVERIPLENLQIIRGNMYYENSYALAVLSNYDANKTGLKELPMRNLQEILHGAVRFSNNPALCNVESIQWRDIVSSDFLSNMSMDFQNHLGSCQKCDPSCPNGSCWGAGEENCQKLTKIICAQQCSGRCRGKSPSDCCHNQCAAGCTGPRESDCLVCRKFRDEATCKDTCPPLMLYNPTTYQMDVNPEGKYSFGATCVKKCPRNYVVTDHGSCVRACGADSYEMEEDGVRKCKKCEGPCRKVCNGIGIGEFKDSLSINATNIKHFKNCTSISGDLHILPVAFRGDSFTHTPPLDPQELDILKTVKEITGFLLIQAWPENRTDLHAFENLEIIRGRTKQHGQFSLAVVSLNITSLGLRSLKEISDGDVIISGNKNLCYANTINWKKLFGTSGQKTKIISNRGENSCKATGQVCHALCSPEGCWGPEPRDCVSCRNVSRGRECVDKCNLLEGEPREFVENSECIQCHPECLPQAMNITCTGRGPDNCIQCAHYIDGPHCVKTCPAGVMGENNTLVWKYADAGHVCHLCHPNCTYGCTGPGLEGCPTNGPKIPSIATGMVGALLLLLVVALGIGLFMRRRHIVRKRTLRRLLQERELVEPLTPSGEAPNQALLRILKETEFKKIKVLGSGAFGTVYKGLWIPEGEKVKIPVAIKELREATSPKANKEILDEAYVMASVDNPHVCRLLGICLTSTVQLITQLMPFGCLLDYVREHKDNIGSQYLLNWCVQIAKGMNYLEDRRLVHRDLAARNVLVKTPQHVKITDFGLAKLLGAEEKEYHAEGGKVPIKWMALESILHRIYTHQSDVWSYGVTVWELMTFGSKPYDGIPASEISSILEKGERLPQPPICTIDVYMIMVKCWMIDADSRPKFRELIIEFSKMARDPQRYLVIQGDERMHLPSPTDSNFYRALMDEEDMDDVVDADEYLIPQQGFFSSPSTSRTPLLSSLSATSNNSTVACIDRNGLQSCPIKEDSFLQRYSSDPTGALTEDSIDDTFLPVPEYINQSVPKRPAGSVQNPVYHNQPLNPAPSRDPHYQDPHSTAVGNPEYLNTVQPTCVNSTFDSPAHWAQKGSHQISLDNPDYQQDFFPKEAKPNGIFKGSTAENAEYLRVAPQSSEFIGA
T2 sequence (P04626 23-1255): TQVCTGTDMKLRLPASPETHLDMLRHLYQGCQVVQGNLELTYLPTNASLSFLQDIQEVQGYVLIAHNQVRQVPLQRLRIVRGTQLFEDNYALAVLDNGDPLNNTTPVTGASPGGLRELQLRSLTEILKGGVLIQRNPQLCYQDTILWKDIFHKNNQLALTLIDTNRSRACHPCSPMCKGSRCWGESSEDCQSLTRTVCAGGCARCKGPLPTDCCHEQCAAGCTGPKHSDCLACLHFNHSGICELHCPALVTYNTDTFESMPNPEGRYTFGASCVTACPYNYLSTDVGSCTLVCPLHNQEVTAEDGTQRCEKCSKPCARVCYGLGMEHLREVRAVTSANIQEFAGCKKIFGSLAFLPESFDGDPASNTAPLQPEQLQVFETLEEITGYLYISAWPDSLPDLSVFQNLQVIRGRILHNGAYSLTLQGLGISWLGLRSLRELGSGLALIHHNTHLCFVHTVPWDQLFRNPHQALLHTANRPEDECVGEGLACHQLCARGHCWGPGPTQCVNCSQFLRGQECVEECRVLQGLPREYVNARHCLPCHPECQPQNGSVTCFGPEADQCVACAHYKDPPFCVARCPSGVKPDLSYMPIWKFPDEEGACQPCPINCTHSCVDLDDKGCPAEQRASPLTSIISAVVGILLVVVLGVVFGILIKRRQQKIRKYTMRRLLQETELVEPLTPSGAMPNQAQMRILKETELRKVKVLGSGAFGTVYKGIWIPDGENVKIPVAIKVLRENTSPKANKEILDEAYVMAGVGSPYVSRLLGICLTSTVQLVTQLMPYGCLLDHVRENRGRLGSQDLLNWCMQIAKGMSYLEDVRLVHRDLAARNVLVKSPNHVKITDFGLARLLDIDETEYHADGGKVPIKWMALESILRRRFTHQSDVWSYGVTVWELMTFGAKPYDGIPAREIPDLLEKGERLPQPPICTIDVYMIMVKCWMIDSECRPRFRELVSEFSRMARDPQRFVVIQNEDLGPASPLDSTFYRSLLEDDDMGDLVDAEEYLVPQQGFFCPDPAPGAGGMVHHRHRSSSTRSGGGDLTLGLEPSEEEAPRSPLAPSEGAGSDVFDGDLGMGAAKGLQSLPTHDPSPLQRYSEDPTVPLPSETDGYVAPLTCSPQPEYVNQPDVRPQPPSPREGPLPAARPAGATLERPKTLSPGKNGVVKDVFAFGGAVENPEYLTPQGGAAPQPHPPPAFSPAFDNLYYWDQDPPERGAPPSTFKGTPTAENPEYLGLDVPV

For `O=C(CN1C(=O)NC(c2ccccc2)(c2ccccc2)C1=O)N/N=C/c1c[nH]c2ccccc12` [Compound 1], the IC50 (EGFR [1]) is given as 0.1 µM.

For `O=C(CN1C(=O)NC(c2ccccc2)(c2ccccc2)C1=O)Nc1ccc(S(=O)(=O)Nc2ccccn2)cc1` [Compound 3], the “inhibition of the breast cancer cell line MCF-7” value [2] is listed as “around 74%”.

In the case of `O=C(CN1C(=O)NC(c2ccccc2)(c2ccccc2)C1=O)c1ccc(N2CCCCC2)cc1` [Compound 2], the IC50 (various cell lines) is listed as 10 µM.

In the case of `CC(=NNC(=O)CN1C(=O)NC(c2ccccc2)(c2ccccc2)C1=O)c1ccc2ccccc2c1` [Compound 24, 2-(2,5-Dioxo-4,4-diphenylimidazolidin-1-yl)-N′-(1-(naphthalen-2-yl)ethylidene)acetohydrazide], the IC50 [3] is reported as 39.5 µM, the “IC50 WI-38” value [3] is reported as “low cytotoxicity” and the IC50 (EGFR [4]) is reported as 0.07 ± 0.004 µM. For the same compound, the IC50 (HER2) was 0.04 ± 0.001 µM, the MCL-1 expression level ([5]; 2 µM) was 715.62 pg/mL and the MCL-1 expression level ([5]; 10 μM) was 261.20 pg/mL and 261.20 ± 8.97 pg/mL. For the same compound, the BCL-2 expression level ([6]; 2 µM) was 15.55 ng/mL, the BCL-2 expression level ([6]; 10 μM) was 8.60 ng/mL and 8.598 ± 0.29 ng/mL and the “Comment (cell cycle arrest)” value (MCF-7 cell line) was “cell cycle arrest appeared at the G2/M phase”. The “%G0–G1” value (MCF-7 cell line; 2 µM) was 52.12%, the “%G2/M” value (MCF-7 cell line; 2 µM) was 25.43% and the “%S” value (MCF-7 cell line; 2 µM) was 22.45%. For the same compound, the “%G0–G1” value (MCF-7 cell line; 10 μM) was 50.61%, the “%G2/M” value (MCF-7 cell line; 10 μM) was 33.46% and the “%S” value (MCF-7 cell line; 10 μM) was 15.93%. The IC50 [7] was 4.92 ± 0.3 µM, the “SI (selectivity index) MCF-7” value [7] was 8.0 and 8.03 and the IC50 (hepatoblastoma (HePG-2)) was 9.07 ± 0.8 µM. The “SI (selectivity index) HePG-2” value (hepatoblastoma (HePG-2)) was 4.3 and 4.35, the IC50 [8] was 12.8 ± 0.9 µM and the “SI (selectivity index) HCT-116” value [8] was 3.0 and 3.08. For the same compound, the IC50 ([9]; read-out: IC50 range against the selected cell lines) was 4.92 to 20.1 µM.

For `CC(=NNC(=O)CN1C(=O)NC(c2ccccc2)(c2ccccc2)C1=O)c1ccc(OC(F)(F)F)cc1` [Compound 13, 2-(2,5-Dioxo-4,4-diphenylimidazolidin-1-yl)-N′-(1-(4-(trifluoromethoxy)phenyl)ethylidene)acetohydrazide], the IC50 [3] was 45.4 µM, the “IC50 WI-38” value [3] was “low cytotoxicity” and the IC50 (EGFR [4]) was 0.61 ± 0.02 µM. For the same compound, the IC50 (HER2) was 0.28 ± 0.01 µM, the IC50 [7] was 9.58 ± 0.8 µM and the “SI (selectivity index) MCF-7” value [7] was 4.7 and 4.73. The IC50 (hepatoblastoma (HePG-2)) was 13.9 ± 1.2 µM, the “SI (selectivity index) HePG-2” value (hepatoblastoma (HePG-2)) was 3.2 and 3.25 and the IC50 [8] was 20.1 ± 1.7 µM. The “SI (selectivity index) HCT-116” value [8] was 2.2 and 2.25 and the IC50 ([9]; read-out: average IC50 versus the examined cell lines) was 14.5 µM.
